Laboratory results: the Deep4Chem optical property database
Values joined by “and” are separate entries in the source; they are usually repeats but may differ in a detail not shown here. Equal values may be shown once.

Experiment: solvent given as SMILES

CC(C)(C)c1ccc2c(c1)Sc1cc(C(C)(C)C)ccc1N2c1ccc2c(ccc3nc4ccc5cc(N6c7ccc(C(C)(C)C)cc7Sc7cc(C(C)(C)C)ccc76)ccc5c4nc32)c1
absorption maximum (in C1CCCCC1): 451 nm
absorption maximum (in C1CCOC1): 452 nm
absorption maximum (in Cc1ccccc1): 451 nm

COc1ccc2oc(=N)c(C#N)cc2c1
absorption maximum (in ClCCl): 388 nm

COc1nc(Nc2ccc3cc4ccccc4cc3c2)nc(OC)n1
absorption maximum (in C1COCCO1): 394 nm
absorption maximum (in CC#N): 395 nm
absorption maximum (in CCCCOCCCC): 398 nm
absorption maximum (in CCOC(C)=O): 395 nm

COc1ccc(-c2cnc3cccc(-c4ccccc4)n23)cc1
absorption maximum (in ClCCl): 341 nm

Cc1sc(Cl)cc1-c1nc(-c2ccccc2)[nH]c1-c1cc(Cl)sc1C
absorption maximum (in CC#N): 298 nm

COc1ccc(-c2c3cc4ccccc4cc3c(-c3ccc(OC)cc3)c3cc4ccccc4cc23)cc1
absorption maximum (in ClCCl): 602 nm

CCOC(=O)c1c2c3c(ccc(Br)c3c3cc4c(cc13)[Si](C)(C)O[Si]4(C)C)N(C)C2=O
absorption maximum (in CC#N): 382 nm

O=C(c1ccncc1)c1ccc(-n2c3ccccc3c3cc(-n4c5ccccc5c5ccccc54)ccc32)cc1
absorption maximum (in C1CCOC1): 342.64 nm
absorption maximum (in CCCCCC): 342.64 nm
absorption maximum (in Cc1ccccc1): 362 nm
absorption maximum (in ClCCl): 342.64 nm

CN(C)c1ccc(C2=Nc3sc4cc(C(F)(F)F)ccc4[n+]3[B-](F)(F)O2)cc1
absorption maximum (in C1CCOC1): 430 nm
absorption maximum (in CC#N): 427 nm
absorption maximum (in CC(C)=O): 431 nm
absorption maximum (in Cc1ccccc1): 428 nm
absorption maximum (in ClCCl): 431 nm

c1ccc2c(c1)OB1Oc3ccccc3-c3c1c-2c1c2c3-c3ccccc3OB2Oc2ccccc2-1
absorption maximum (in ClCCl): 405 nm

Cc1cc(C2=Cc3cccc[n+]3[B-](F)(F)O2)ccc1N(C)C
absorption maximum (in ClC(Cl)Cl): 400 nm

CC1(C)C(/C=C/C2=C(Cl)C(=C/C=C3/N(CCCCS(=O)(=O)[O-])c4ccc5ccccc5c4C3(C)C)/CCC2)=[N+](CCCCS(=O)(=O)[O-])c2ccc3ccccc3c21
absorption maximum (in CO): 820 nm

COc1ccc2c(c1)CCC1=C(C#Cc3cc4ccccc4c4ccccc34)O[B-](F)(F)[O+]=C12
absorption maximum (in ClCCl): 465 nm

c1ccc(Nc2nc(Nc3ccccc3)nc(Nc3ccc4ccc5cccc6ccc3c4c56)n2)cc1
absorption maximum (in CC#N): 342 nm
absorption maximum (in CCCCOCCCC): 342 nm
absorption maximum (in CO): 340 nm

Nc1ccc2c3c(cccc13)C(=O)c1ccccc1-2
absorption maximum (in CO): 514.14 nm

Cc1ccc2c(c1)C1(c3ccccc3-c3ccccc31)c1cc(C)ccc1N2c1ccc(-c2ncccn2)cc1
absorption maximum (in Cc1ccccc1): 380 nm

CCOc1cc2c(cc1/C=C/C1=CC(=C(C#N)C#N)CC(C)(C)C1)c1ccccc1n2CC
absorption maximum (in C1CCOC1): 476 nm
absorption maximum (in CC#N): 474 nm
absorption maximum (in CCO): 480 nm
absorption maximum (in CCOC(C)=O): 469 nm
absorption maximum (in CN(C)C=O): 487 nm
absorption maximum (in CS(C)=O): 491 nm
absorption maximum (in Cc1ccccc1): 474 nm
absorption maximum (in ClC(Cl)Cl): 480 nm
absorption maximum (in ClCCl): 479 nm

CCN(CC)c1ccc2cc(/C=C/C(O)=C/C(C)=O)c(=O)oc2c1
absorption maximum (in CC#N): 456 nm
absorption maximum (in CC(C)=O): 456 nm
absorption maximum (in CCOC(C)=O): 447 nm
absorption maximum (in CO): 458 nm
absorption maximum (in CS(C)=O): 470 nm
absorption maximum (in Cc1ccccc1): 447 nm
absorption maximum (in ClC(Cl)Cl): 455 nm
absorption maximum (in ClCCl): 456 nm

N#Cc1ccc(/C=C2\C=C(c3ccccc3)OC2=O)cc1
absorption maximum (in C1COCCO1): 400 nm

Cc1cscc1-c1cc2c3cc(-c4cscc4C)c4nc(C(F)(F)C(F)(F)C(F)(F)F)nc5c(-c6cscc6C)cc(c6cc(-c7cscc7C)c7nc(C(F)(F)C(F)(F)C(F)(F)F)nc1c7c26)c3c45
absorption maximum (in C1CCOC1): 493 nm

O=c1c2ccccc2nc2ccc(-c3ccc(-c4ccc(N(c5ccccc5)c5ccccc5)cc4)cc3)cn12
absorption maximum (in ClCCl): 362 nm

O=C1c2ccc3c4c(Oc5ccccc5)cc5c6c(ccc(c7c(Oc8ccccc8)cc(c2c37)C(=O)N1c1ccc(O)cc1)c64)C(=O)N(c1ccc(O)cc1)C5=O
absorption maximum (in C1CCOC1): 513 nm
absorption maximum (in CN1CCCC1=O): 487 nm
absorption maximum (in CN(C)C=O): 495 nm

CN(C)c1ccc(/C=C/c2cc[n+](C)cc2)cc1
absorption maximum (in C1CCOC1): 483 nm
absorption maximum (in CC1COC(=O)O1): 473 nm
absorption maximum (in CC#N): 470 nm
absorption maximum (in CC(C)=O): 474 nm and 468 nm
absorption maximum (in CC(C)O): 477 nm
absorption maximum (in CCO): 480 nm
absorption maximum (in CCOC(C)=O): 464 nm
absorption maximum (in CO): 476 nm and 474 nm
absorption maximum (in CS(C)=O): 471 nm
absorption maximum (in ClC(Cl)Cl): 500 nm
absorption maximum (in ClCCl): 522 nm
absorption maximum (in O): 448 nm
absorption maximum (in c1ccncc1): 494 nm
